Consider 50 compounds from patent US10815238B2, “Antimicrobial compounds and methods of making and using the same” (BIOVERSYS AG, priority 2013, dated 2020).

This assay relates to Eschericia coli (E. coli) strain ATCC25922. As to the kind of experiment: Standard microdilution assay, MIC against E. coli ATCC25922. Particulars: Escherichia coli; E. coli strain ATCC25922, standard microdilution assay; cutoff 16 micrograms/mL; read-out: MIC E. Coli. It is filed as cell-based. The method, then:
The in vitro activity of the compounds of the present invention can be determined. Antimicrobial testing is typically performed to determine the minimum inhibitory concentration (MIC). Minimum inhibitory concentrations (MICs) are determined by the microdilution method in a final volume of 100 μl according to protocols outlined by The Clinical and Laboratory Standards Institute (CLSI). Performance standards for reference strains are assessed within the same experimental design to maintain quality control. See, for example, Clinical Laboratory Standards Institute: Methods for dilution antimicrobial susceptibility tests for bacteria that grow aerobically M7-A8. Approved Standard-Eighth Edition. Wayne, Pa.: CLSI; December 2008; and Clinical Laboratory Standards Institute: Performance Standards for Antimicrobial Susceptibility Testing M100-S20; Approved Standard-Twentieth Edition. Wayne, Pa.: CLSI; June 2010.
The compounds of the present invention were tested for antimicrobial activity. The Compounds 1-582 were run against Eschericia coli (E. coli) strain ATCC25922 and Compounds 320-582 were run against Staphylococcus aureus (S. aureus) 11540 strain using a standard microdilution assay to determine minimum inhibitory concentrations (MICs). […] It will be recognized by one skilled in the art that the compounds can be assessed against other bacterial organisms and that the presentation of data for activity against Eschericia coli and Staphylococcus aureus are illustrative and in no way is intended to limit the scope of the present invention. The compounds of the present invention can be assayed against a range of other microorganisms depending upon the performance activity desired to be gathered. Furthermore, the “+” and “−” representation and the selection of a cutoff value of 16 micrograms/mL is also illustrative and in no way is intended to limit the scope of the present invention.
For `C[C@H](N)CCCc1cc(SC(F)(F)F)cc(-c2cc3cn(-c4ccc([C@@H](CCc5ccncc5)NCCCNC(=N)N)cc4)c(=O)nc3[nH]2)c1` [Compound 86], the MIC was less than 16 µg/mL.
The same measure for `C[C@H](N)CCCc1cc(Cl)c(F)c(-c2cc3cn(-c4ccc([C@H](Cn5ccnn5)NCCCNC(=N)N)cc4)c(=O)nc3[nH]2)c1` [Compound 87]: less than 16 µg/mL; for `C[C@H](N)CCCc1cc(SC(F)(F)F)cc(-c2cc3cn(-c4ccc([C@H](Cn5ccnn5)NCCCNC(=N)N)cc4)c(=O)nc3[nH]2)c1` [Compound 88]: less than 16 µg/mL; for `N=C(N)NCCCNCc1cccc(-n2cc3cc(-c4ccc(C(NC5CN(C(=N)N)C5)C(F)(F)F)cc4)[nH]c3nc2=O)c1` (centres unmarked) [Compound 89]: less than 16 µg/mL.
The same measure for `C[C@H](N)CCCc1cc(Cl)c(F)c(-c2cc3cn(-c4cccc(CNCCCNC(=N)N)c4)c(=O)nc3[nH]2)c1` [Compound 90]: less than 16 µg/mL; for `C=C[C@H](N)CC[C@H](O)c1cc(SC(F)(F)F)cc(-c2cc3cn(-c4ccc([C@H](C)NCCCNC(=N)N)cc4)c(=O)nc3[nH]2)c1` [Compound 91]: less than 16 µg/mL; for `C[C@H](N)CCCc1cc(Cl)c(F)c(-c2cc3cn(-c4ccc([C@H](N)CCCCNC(=N)N)cc4)c(=O)nc3[nH]2)c1` [Compound 92]: less than 16 µg/mL.
Next, `C[C@H](N)CCCc1cc(SC(F)(F)F)cc(-c2cc3cn(-c4ccc([C@H](N)CCCCNC(=N)N)cc4)c(=O)nc3[nH]2)c1` [Compound 93]: less than 16 µg/mL; `C[C@H](N)CCCc1cc(-c2cc3cn(-c4ccc([C@H](Cn5ccnn5)NCCCNC(=N)N)cc4)c(=O)nc3[nH]2)cc(C(F)(F)F)c1` [Compound 94]: less than 16 µg/mL.
For `C[C@H](N)CCCc1cc(Cl)c(F)c(-c2cc3cn(-c4ccc([C@@H](CF)NCCCNC(=N)N)cc4)c(=O)nc3[nH]2)c1` [Compound 95], the MIC was less than 16 µg/mL.
With `C[C@H](N)CCCc1cc(SC(F)(F)F)cc(-c2cc3cn(-c4ccc([C@@H](CF)NCCCNC(=N)N)cc4)c(=O)nc3[nH]2)c1` [Compound 96], the MIC is less than 16 µg/mL.
The same measure for `C[C@H](N)CCCc1cc(-c2cc3cn(-c4ccc([C@@H](CF)NCCCNC(=N)N)cc4)c(=O)nc3[nH]2)cc(C(F)(F)F)c1` [Compound 97]: less than 16 µg/mL.
Next, `C[C@H](N)CCCc1cc(-c2cc3cn(-c4ccc([C@H]5COC(=O)N5CCCNC(=N)N)cc4)c(=O)nc3[nH]2)cc(C(F)(F)F)c1` [Compound 98]: less than 16 µg/mL; `C[C@H](N)CCCc1cc(Cl)c(F)c(-c2cc3cn(-c4ccc([C@H](CCCO)NCCCNC(=N)N)cc4)c(=O)nc3[nH]2)c1` [Compound 99]: less than 16 µg/mL.
Next, `C[C@H](N)CCCc1cc(SC(F)(F)F)cc(-c2cc3cn(-c4ccc([C@H](CCCO)NCCCNC(=N)N)cc4)c(=O)nc3[nH]2)c1` [Compound 100]: less than 16 µg/mL; `C[C@H](N)CCCc1cc(-c2cc3cn(-c4ccc([C@H](CCCO)NCCCNC(=N)N)cc4)c(=O)nc3[nH]2)cc(C(F)(F)F)c1` [Compound 101]: less than 16 µg/mL; `C[C@H](N)CCCc1cc(Cl)c(F)c(-c2cc3cn(-c4ccc([C@@H](NCCCNC(=N)N)C5CC5)cc4)c(=O)nc3[nH]2)c1` [Compound 102]: less than 16 µg/mL.
For `C[C@H](N)CCCc1cc(Cl)c(F)c(-c2cc3cn(-c4ccc([C@H](CO)NCCCNC(=N)N)cc4)c(=O)nc3[nH]2)c1` [Compound 103], the MIC is less than 16 µg/mL.
The same measure for `C[C@H](N)CCCc1cc(SC(F)(F)F)cc(-c2cc3cn(-c4ccc([C@H](CO)NCCCNC(=N)N)cc4)c(=O)nc3[nH]2)c1` [Compound 104]: less than 16 µg/mL.
The same measure for `C[C@H](N)CCCc1cc(Cl)c(F)c(-c2cc3cn(-c4ccc([C@H](CC5=CCCN(C)C5)NCCCNC(=N)N)cc4)c(=O)nc3[nH]2)c1` [Compound 105]: less than 16 µg/mL; for `C[C@H](N)CCCc1cc(SC(F)(F)F)cc(-c2cc3cn(-c4ccc(C(NCCCNC(=N)N)c5nnn[nH]5)cc4)c(=O)nc3[nH]2)c1` (some centres unmarked) [Compound 106]: less than 16 µg/mL.
The same measure for `C[C@H](N)CCCc1cc(Cl)c(F)c(-c2cc3cn(-c4ccc([C@H](C)NCCCN)cc4)c(=O)nc3[nH]2)c1` [Compound 107]: less than 16 µg/mL; for `C[C@H](N)CCCc1cc(-c2cc3cn(-c4ccc([C@H](CO)NCCCNC(=N)N)cc4)c(=O)nc3[nH]2)cc(C(F)(F)F)c1` [Compound 108]: less than 16 µg/mL; for `O=c1nc2[nH]ccc2cn1-c1ccc(CNCc2cccnc2)cc1` [Compound 109]: more than 16 µg/mL.
For `C[C@H](NCCCNC(=N)N)c1ccc(-n2cc3cc(-c4cc(SC(F)(F)F)cc([C@H](O)CC[C@@H](N)CO)c4)[nH]c3nc2=O)cc1` [Compound 110], the MIC was less than 16 µg/mL.
Consider `C[C@H](NCCCNC(=N)N)c1ccc(-n2cc3cc(-c4cc(SC(F)(F)F)cc([C@H](O)CC[C@H](N)CO)c4)[nH]c3nc2=O)cc1` [Compound 111], for which the MIC was less than 16 µg/mL.
The same measure for `C[C@H](N)CCCc1cc(Cl)c(F)c(-c2cc3cn(-c4ccc(CNCc5cccnc5)cc4)c(=O)nc3[nH]2)c1` [Compound 112]: more than 16 µg/mL; for `C[C@H](N)CCCc1cc(SC(F)(F)F)cc(-c2cc3cn(-c4ccc(CNCc5cccnc5)cc4)c(=O)nc3[nH]2)c1` [Compound 113]: more than 16 µg/mL.
The same measure for `O=C(O)CNCc1ccc(-n2cc3cc[nH]c3nc2=O)cc1` [Compound 114]: more than 16 µg/mL; for `C[C@H](N)CCCc1cc(Cl)c(F)c(-c2cc3cn(-c4ccc(CNCC(=O)O)cc4)c(=O)nc3[nH]2)c1` [Compound 115]: more than 16 µg/mL; for `C[C@H](N)CCCc1cc(SC(F)(F)F)cc(-c2cc3cn(-c4ccc(CNCC(=O)O)cc4)c(=O)nc3[nH]2)c1` [Compound 116]: more than 16 µg/mL.
For `C[C@H](NCCCNC(=N)N)c1ccc(-n2cc3cc(-c4cc(CCC[C@@H](N)CF)cc(SC(F)(F)F)c4)[nH]c3nc2=O)cc1` [Compound 117], the MIC was less than 16 µg/mL.
Next, `C[C@H](N)CCCc1cc(Cl)c(F)c(-c2cc3cn(-c4ccc([C@@H](N)CCCCNC(=N)N)cc4)c(=O)nc3[nH]2)c1` [Compound 118]: less than 16 µg/mL; `C[C@H](N)CCCc1cc(Cl)c(F)c(-c2cc3cn(-c4ccc(CNCc5c[nH]nn5)cc4)c(=O)nc3[nH]2)c1` [Compound 119]: more than 16 µg/mL; `COc1ccc(Cn2cc(CNCc3ccc(-n4cc5cc(-c6cc(CCC[C@H](C)N)cc(Cl)c6F)[nH]c5nc4=O)cc3)nn2)cc1` [Compound 120]: more than 16 µg/mL.
The same measure for `C[C@H](N)CCCc1cc(SC(F)(F)F)cc(-c2cc3cn(-c4ccc(CNCc5c[nH]nn5)cc4)c(=O)nc3[nH]2)c1` [Compound 121]: more than 16 µg/mL.
The same measure for `COc1ccc(Cn2cc(CNCc3ccc(-n4cc5cc(-c6cc(CCC[C@H](C)N)cc(SC(F)(F)F)c6)[nH]c5nc4=O)cc3)nn2)cc1` [Compound 122]: more than 16 µg/mL.
In the case of `CNCCNCc1ccc(-n2cc3cc(-c4cc(CCC[C@H](C)N)cc(Cl)c4F)[nH]c3nc2=O)cc1` [Compound 123], the MIC is less than 16 µg/mL.
Next, `CNCCNCc1ccc(-n2cc3cc(-c4cc(CCC[C@H](C)N)cc(SC(F)(F)F)c4)[nH]c3nc2=O)cc1` [Compound 124]: more than 16 µg/mL; `CNCCNCc1ccc(-n2cc(-c3cc4cn(-c5ccc(CNCCNC)cc5)c(=O)nc4[nH]3)c(N)nc2=O)cc1` [Compound 125]: more than 16 µg/mL.
Take `O=c1nc2[nH]ccc2cn1-c1ccc(CNCc2ccncc2)cc1` [Compound 126]: the MIC was more than 16 µg/mL.
Next, `C[C@H](N)CCCc1cc(Cl)c(F)c(-c2cc3cn(-c4ccc(CNCc5ccncc5)cc4)c(=O)nc3[nH]2)c1` [Compound 127]: more than 16 µg/mL.
The same measure for `C[C@H](N)CCCc1cc(SC(F)(F)F)cc(-c2cc3cn(-c4ccc(CNCc5ccncc5)cc4)c(=O)nc3[nH]2)c1` [Compound 128]: more than 16 µg/mL.
Next, `O=c1nc2[nH]ccc2cn1-c1ccc(CNCc2c[nH]nn2)cc1` [Compound 129]: more than 16 µg/mL.
For the compound `COC[C@H](N)CCCc1cc(SC(F)(F)F)cc(-c2cc3cn(-c4ccc([C@H](C)NCCCNC(=N)N)cc4)c(=O)nc3[nH]2)c1` [Compound 130], the MIC is less than 16 µg/mL.
The same measure for `COc1ccc(Cn2cc(CNCc3ccc(-n4cc5cc[nH]c5nc4=O)cc3)nn2)cc1` [Compound 131]: more than 16 µg/mL; for `C[C@H](NCCCNC(=N)N)c1ccc(-n2cc3cc(-c4cc(SC(F)(F)F)cc([C@H](O)CC[C@H](N)CCO)c4)[nH]c3nc2=O)cc1` [Compound 132]: less than 16 µg/mL.
The same measure for `C[C@H](NCCCNC(=N)N)c1ccc(-n2cc3cc(-c4cc(SC(F)(F)F)cc([C@H](O)CC[C@@H](N)CCO)c4)[nH]c3nc2=O)cc1` [Compound 133]: less than 16 µg/mL; for `C[C@H](NCCCNC(=N)N)c1ccc(-n2cc3cc(-c4cc(SC(F)(F)F)cc([C@H](O)CCC(N)C(O)CO)c4)[nH]c3nc2=O)cc1` (some centres unmarked) [Compound 134]: less than 16 µg/mL.
Next, `C[C@H](NCCCNC(=N)N)c1ccc(-n2cc3cc(-c4cc(CCC[C@@H](N)CF)cc(Cl)c4F)[nH]c3nc2=O)cc1` [Compound 135]: less than 16 µg/mL.
